Where a name gives a salt, the structure may show the parent alone.
Each molecule was assayed against T1, human platelet PDE-V (Homo sapiens, UniProt O76074) (assay: cGMP-Phosphodiesterase (PDE) assay, enzymatic inhibitory test). Conditions: not given.
T1 construct: Human platelet cGMP-PDE was separated from other isozymes in human platelets; from tissue; host or cells: human platelets
Type: biochemical
Procedure: cGMP-Phosphodiesterase (PDE) Assay
Human platelet cGMP-PDE was separated from other isozymes in human platelets by a modification of the method of Thompson et. al. (see Cyclic Nucleotide Phosphodiesterase (PDE), in Methods of Enzymatic analysis, Vol 4, p127-234, 1984). In enzyme inhibition assays, the test compounds were dissolved in DMSO and then diluted with assay buffer (50 mM Tris-HCl, 0.077 mg/ml dithiothreitol and 10 mg/ml snake venom, 1 mM EGTA, pH 8.0), at final concentrations ranging from 10^−10 to 10^−6 M. Assays were performed at 0.1 μM substrate ([^3H]-cGMP) concentration, at 30° C. for 10 minutes using enzyme dilutions which gave 10-20% hydrolysis of substrate. Each assay was initiated by addition of substrate and terminated by addition of anion exchange resin (Dowex® 1-X8, 250 mg/mg) followed by centrifugation for 10 minutes (3000 rpm, at 4° C.). Radioactivity of supernatant (^3H-GMP) was assayed by liquid scintillation counting.

Row | Structure (SMILES) | IC50
1 | CC[C@H](CO)Nc1ccc([N+](=O)[O-])cc1C(=O)NCc1ccc(Cl)c([N+](=O)[O-])c1 [(R)-N-(4-Chloro-3-nitrobenzyl)-2-[1-(hydroxymethyl)propylamino]-5-nitrobenzamide] | < 10 nM

Same assay, conditions: human platelet PDE-V; 0.1 μM [3H]-cGMP substrate, 30° C., 10 minutes; read-out: Inhibitory activity IC50

Row | IC50 | Structure (SMILES)
2 | < 10 nM | O=C(NCc1ccc2c(c1)OCO2)c1cc([N+](=O)[O-])ccc1NC1CCSCC1 [5-Nitro-N-(1,3-benzodioxol-5-ylmethyl)-2-(tetrahydro-2H-thiopyran-4-ylamino)benzamide]
3 | < 10 nM | COc1ccc(CNC(=O)c2cc(Br)ccc2NC2CCCC2)cc1Cl [5-bromo-N-(3-chloro-4-methoxybenzyl)-2-(cycloperitylamino)benzamide hydrochloride]
4 | < 10 nM | O=C1CCC(Nc2ccc([N+](=O)[O-])cc2C(=O)NCc2ccc3c(c2)OCO3)CC1 [5-nitro-2-(4-oxocyclohexylamino)-N-(1,3-benzodioxol-5-ylmethyl)benzamide]
5 | < 10 nM | O=C(NCc1ccc2c(c1)OCO2)c1cc([N+](=O)[O-])ccc1NC1CCNCC1 [5-nitro-2-(4-piperidinylamino)-N-(1,3-benzodioxol-5-ylmethyl)benzamide]
6 | < 10 nM | CC[C@H](CO)Nc1ccc([N+](=O)[O-])cc1C(=O)NCc1ccc2c(c1)OCO2 [(R)-2-(1-Ethyl-2-hydroxyethylamino)-5-nitro-N-(1,3-benzodioxol-5-ylmethyl)benzamide]
7 | < 10 nM | C[C@H](CO)Nc1ccc([N+](=O)[O-])cc1C(=O)NCc1ccc(-c2ccccc2)cc1 [(R)-2-(2-Hydroxy-1-methylethyl)amino-5-nitro-N-(4-phenybenzyl)benzamide]
8 | < 10 nM | COC(=O)[C@@H](C)Nc1ccc([N+](=O)[O-])cc1C(=O)NCc1ccc2c(c1)OCO2 [(R)-2-[1-(Methoxycarbonyl)ethylamino]-5-nitro-N-(1,3-benzodioxol-5-ylmethyl)benzamide]
9 | < 10 nM | O=C(NCc1ccc2c(c1)OCO2)c1cc([N+](=O)[O-])ccc1N[C@@H]1CCOC1 [(R)-5-Nitro-2-(tetrahydro-3-furanylamino)-N-(1,3-benzodioxol-5-ylmethyl)benzamide]
10 | < 10 nM | CC(C)[C@@H](CO)Nc1ccc([N+](=O)[O-])cc1C(=O)NCc1ccc2c(c1)OCO2 [(S)-2-[1-(Hydroxymethyl)-2-methylpropylamino]-5-nitro-N-(1,3-benzodioxol-5-ylmethyl)benzamide]
11 | < 10 nM | CC[C@@H](CCl)Nc1ccc([N+](=O)[O-])cc1C(=O)NCc1ccc2c(c1)OCO2 [(S)-2-[1-(chloromethyl)propylamino]-5-nitro-N-(1,3-benzodioxol-5-ylmethyl)benzamide]
12 | < 10 nM | COc1ccc(CNC(=O)c2cc([N+](=O)[O-])ccc2N[C@H](CO)CNC=O)cc1OC [(S)-N-(3,4-Dimethoxybenzyl)-2-[1-(formamidomethyl)-2-hydroxyethylamino]-5-nitrobenzamide]
13 | < 10 nM | COc1ccc(CNC(=O)c2cc([N+](=O)[O-])ccc2NC2CCCC2)c(Cl)c1 [N-(2-Chloro-4-methoxybenzyl)-2-(cyclopentyrlamino)-5-nitrobenzamide]
14 | < 10 nM | COc1ccc(Cl)c(CNC(=O)c2cc([N+](=O)[O-])ccc2N[C@H]2CC[C@@H](O)CC2)c1 [N-(2-Chloro-5-methoxybenzyl)-2-(cis-4-hydroxycyclohexylamino)-5-nitrobenzamide]
15 | < 10 nM | O=C(NCc1ccccc1Cl)c1cc([N+](=O)[O-])ccc1NC1CCCC1 [N-(2-Chlorobenzyl)-2-cyclopentylamino-5-nitrobenzamide]
16 | < 10 nM | COc1ccc(CNC(=O)c2cc([N+](=O)[O-])ccc2NC2CCNCC2)cc1OC [N-(3,4-Dimethoxybenzyl)-5-nitro-2-(4-piperidinylamino)benzamide]
17 | < 10 nM | O=C(NCc1ccc2c(c1)OCCO2)c1cc([N+](=O)[O-])ccc1N[C@H]1CC[C@H](O)CC1 [N-(3,4-Ethylenedioxybenzyl)-2-(trans-4-hydroxycyclohexylamino)-5-nitrobenzamide]
18 | < 10 nM | COc1ccc(CNC(=O)c2cc([N+](=O)[O-])ccc2NC2COC(C)(C)OC2)cc1OC [N-(3,4-dimethoxybenzyl)-2-(2,2-dimethyl-1,3-dioxan-5-ylamino)-5-nitrobenzamide]
19 | < 10 nM | COc1ccc(CNC(=O)c2cc([N+](=O)[O-])ccc2N[C@H]2CC[C@H](NC(=N)N)CC2)cc1OC [N-(3,4-dimethoxybenzyl)-2-(trans-4-guanidinocyclohexylamino)-5-nitrobenzamide hydrochloride]
20 | < 10 nM | COc1ccc(CNC(=O)c2cc([N+](=O)[O-])ccc2NC2COC(=O)OC2)cc1OC [N-(3,4-dimethoxybenzyl)-5-nitro-2-(2-oxo-1,3-dioxan-5-ylamino)benzamide]
21 | < 10 nM | CCCNC(=O)N[C@H]1CC[C@H](Nc2ccc([N+](=O)[O-])cc2C(=O)NCc2ccc(OC)c(OC)c2)CC1 [N-(3,4-dimethoxybenzyl)-5-nitro-2-[trans-4-(3-propylureido)cyclohexylamino]benzamide]

Row | IC50 | Structure (SMILES)
22 | < 10 nM | COc1c(Cl)cc(CNC(=O)c2cc([N+](=O)[O-])ccc2N[C@H]2CC[C@H](O)CC2)cc1Cl [N-(3,5-Dichloro-4-methoxybenzyl)-2-(trans-4-hydroxycyclohexylamino)-5-nitrobenzamide]
23 | < 10 nM | COc1ccc(CNC(=O)c2cc(C(F)(F)F)ccc2NC(CO)CO)cc1Cl [N-(3-Chloro-4-methoxybenzyl)-2-[2-hydroxy-1-(hydroxymethyl)ethylamino]-5-(trifluoromethyl)benzamide]
24 | < 10 nM | O=C(NCc1cccc(Cl)c1)c1cc([N+](=O)[O-])ccc1NC1CCCC1 [N-(3-Chlorobenzyl)-2-(cyclopentylamino)-5-nitrobenzamide]
25 | < 10 nM | COc1ccc(CNC(=O)c2cc([N+](=O)[O-])ccc2NC(CO)CO)cc1F [N-(3-Fluoro-4-methoxybenzyl)-2-[2-hydroxy-1-(hydroxynethyl)ethylamino]-5-nitrobenzamide]
26 | < 10 nM | Nc1ccc(CNC(=O)c2cc([N+](=O)[O-])ccc2NC2CCCC2)cc1 [N-(4-Aminobenzyl)-2-(cyclopentylamino)-5-nitrobenzamide]
27 | < 10 nM | O=C(NCc1ccc(Br)cc1)c1cc([N+](=O)[O-])ccc1NC1CCCC1 [N-(4-Bromobenzyl)-2-(cyclopentylamino)-5-nitrobenzamide]
28 | < 10 nM | CCOc1cc(CNC(=O)c2cc([N+](=O)[O-])ccc2N[C@H]2CC[C@@H](O)CC2)ccc1Cl [N-(4-Chloro-3-ethoxybenzyl)-2-(cis-4-hydroxycyclohexylamino)-5-nitrobenzaride]
29 | < 10 nM | O=C(NCc1ccc(Cl)cc1)c1cc([N+](=O)[O-])ccc1NC1CCCC1 [N-(4-Chlorobenzyl)-2-(cyclopentylamino)-5-nitrobenzamide]
30 | < 10 nM | COc1cc(CNC(=O)c2cc([N+](=O)[O-])ccc2NC(CO)CO)ccc1OCC1CCC1 [N-(4-Cyclobutylmethoxy-3-methoxybenzyl)-2-[2-hydroxy-1-(hydroxymethyl)ethylamino]-5-nitrobenzamide]
31 | < 10 nM | CCOc1ccc(CNC(=O)c2cc([N+](=O)[O-])ccc2N[C@H]2CC[C@@H](O)CC2)cc1OC [N-(4-Ethoxy-3-methoxybenzyl)-2-(cis-4-hydroxycyclohexylamino)-5-nitrobenzamide]
32 | < 10 nM | CCOc1ccc(CNC(=O)c2cc([N+](=O)[O-])ccc2N[C@H]2CC[C@H](NC=O)CC2)cc1OC [N-(4-Ethoxy-3-methoxybenzyl)-2-(trans-4-formamidocyclohexylamino)-5-nitrobenzamide]
33 | < 10 nM | Nc1ccc(CNC(=O)c2cc([N+](=O)[O-])ccc2NC2CCCC2)c(Cl)c1 [N-(4-amino-2-chlorobenzyl)-2-(cyclopentylamino)-5-nitrobenzamide]
34 | < 10 nM | O=C(NCc1cc2ccccc2s1)c1cc([N+](=O)[O-])ccc1N[C@H]1CC[C@@H](O)CC1 [N-(Benzo[b]thiophen-2-ylmethyl)-2-(cis-4-hydroxycyclohexylamino)-5-nitrobenzamide]
35 | < 10 nM | O=C(NCc1cc2ccccc2o1)c1cc([N+](=O)[O-])ccc1N[C@H]1CC[C@@H](O)CC1 [N-(Benzofuran-2-ylmethyl)-2-(cis-4-hydroxycyclohexylamino)-5-nitrobenzamide]
36 | < 10 nM | O=C(NCc1ccccc1)c1cc([N+](=O)[O-])ccc1NC1CCC(O)C1 (centres unmarked) [N-Benzyl-2-(3-hydroxycyclopentylamino)-5-nitrobenzamide]
37 | < 10 nM | O=C(NCc1ccccc1)c1cc([N+](=O)[O-])ccc1NC1CCC1 [N-Benzyl-2-(cyclobutylamino)-5-nitrobenzamide]
38 | < 10 nM | O=C(NCc1ccccc1)c1cc([N+](=O)[O-])ccc1NC1CCCCC1 [N-Benzyl-2-(cyclohexylamino)-5-nitrobenzamide]
39 | < 10 nM | O=C(NCc1ccccc1)c1cc([N+](=O)[O-])ccc1NC1CC1 [N-Benzyl-2-(cyclopropylamino)-5-nitrobenzamide]
40 | < 10 nM | O=C(NCc1nc2ccccc2[nH]1)c1cc([N+](=O)[O-])ccc1NC1CCCC1 [N-[(2-Benzimidazolyl)methyl]-2-(cyclopentylamino)-5-nitrobenzamide]
41 | < 10 nM | O=C(NCC1CCCCC1)c1cc([N+](=O)[O-])ccc1N[C@H]1CC[C@@H](O)CC1 [N-cyclohexylmethyl-2-(cis-4-hydroxycyclohexylamino)-5-nitrobenzamide]
